Reference: patent publication US8389523B2, “Substituted quinoxaline and an agrochemical composition thereof” (Kumiai Chemical Industry Co., Ltd., priority 2007, dated 2013)

Columns and labels:
[1] = tested on: Abutilon theophrasti medicus; test: Herbicidal effects in upland field foliar treatment (Test Example 3); type: in vivo; design: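 grade 0 to 5 of growth suppression where 5 is 90% or more and 0 below 10%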; details: criteria of Table 138; for herbicidal effect (index) on Abutilon theophrasti medicus: 1000 g active ingredient per hectare, 14th day after treatment; for herbicidal effects on Abutilon theophrasti medicus: 1000 g of the active ingredient per hectare, 14th day after the treatment, wettable powder
In short: (§1)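 Weeds were sown in upland field soil and grown two weeks in a greenhouse before a foliar spray over the whole plant. Wettable powder was diluted in water and applied at 1000 L/ha, delivering 1000 g active ingredient/ha. Herbicidal effect was scored against set rating criteria 14 days after treatment.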

[2] = tested on: Echinochloa crus-galli (L.) P. Beauv. var. crus-galli; test: as above; type: in vivo; design: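 grade 0 to 5 of growth suppression where 5 is 90% or more and 0 below 10%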; details: criteria of Table 138; for herbicidal effect (index) on Echinochloa crus-galli (L.) P. Beauv. var. crus-galli: 1000 g active ingredient per hectare, 14th day after treatment; for herbicidal effects on Echinochloa crus-galli (L.) P. Beauv. var. crus-galli: 1000 g of the active ingredient per hectare, 14th day after the treatment, wettable powder
In short: as §1

[3] = tested on: Amaranthus viridis L.; test: as above; type: in vivo; design: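 grade 0 to 5 of growth suppression where 5 is 90% or more and 0 below 10%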; details: criteria of Table 138; for herbicidal effect (index) on Amaranthus viridis L.: 1000 g active ingredient per hectare, 14th day after treatment; for herbicidal effects on Amaranthus viridis L.: 1000 g of the active ingredient per hectare, 14th day after the treatment, wettable powder
In short: as §1

[4] = tested on: Monochoria vaginalis (Burm. f.) Presl var. plantaginea (Roxb.) Solms-Laub.; test: Herbicidal effects in paddy field soil treatment (Test Example 1); type: in vivo; design: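 grade 0 to 5 of growth suppression where 5 is 90% or more and 0 below 10%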; details: paddy field soil treatment; 1000 g of the active ingredient per hectare; wettable powder added dropwise on water surface; 21st day after treatment
In short: (§2)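 Weed seeds were sown into puddled, leveled paddy soil in pots and flooded to 3 cm water depth. One day later the diluted wettable powder formulation was dropped onto the water surface at 1000 g active ingredient per hectare. Herbicidal effect was scored on day 21 after greenhouse growth.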

[5] = tested on: Echinochloa oryzicola Vasing; test: as above; type: in vivo; design: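 grade 0 to 5 of growth suppression where 5 is 90% or more and 0 below 10%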; details: paddy field soil treatment; 1000 g of the active ingredient per hectare; wettable powder added dropwise on water surface; 21st day after treatment
In short: as §2

[6] = tested on: Scirpus juncoides Roxb. var. ohwianus. T. Koyama; test: as above; type: in vivo; design: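 grade 0 to 5 of growth suppression where 5 is 90% or more and 0 below 10%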; details: paddy field soil treatment; 1000 g of the active ingredient per hectare; wettable powder added dropwise on water surface; 21st day after treatment
In short: as §2

[7] = tested on: Abutilon theophrasti medicus; test: Herbicidal effects in upland field soil treatment (Test Example 2); type: in vivo; design: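 grade 0 to 5 of growth suppression where 5 is 90% or more and 0 below 10%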; details: 1000 g active ingredient per hectare, 21st day after treatment, criteria of Table 138
In short: (§3)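 Pre-emergence soil application: seeds sown in upland field soil, covered, then wettable powder diluted in water sprayed on the soil surface at 1000 g active ingredient/ha in 1000 L/ha. Plants grown in greenhouse; herbicidal effect scored on a rating scale 21 days after treatment.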

[8] = tested on: Amaranthus viridis L.; test: as above; type: in vivo; design: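 grade 0 to 5 of growth suppression where 5 is 90% or more and 0 below 10%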; details: 1000 g active ingredient per hectare, 21st day after treatment, criteria of Table 138
In short: as §3

SMILES	herbicidal effect (index) on Abutilon theophrasti medicus [1]	herbicidal effect (index) on Echinochloa crus-galli (L.) P. Beauv. var. crus-galli [2]	herbicidal effect (index) on Amaranthus viridis L. [3]	melting point [°C]	Herbicidal effects index, Monochoria vaginalis (Burm. f.) Presl var. plantaginea (Roxb.) Solms-Laub. [4]	Herbicidal effects index, Echinochloa oryzicola Vasing [5]	Herbicidal effects index, Scirpus juncoides Roxb. var. ohwianus. T. Koyama [6]	herbicidal effect (index) on Abutilon theophrasti medicus [7]	herbicidal effect (index) on Amaranthus viridis L. [8]	herbicidal effects on Abutilon theophrasti medicus [1]	herbicidal effects on Echinochloa crus-galli (L.) P. Beauv. var. crus-galli [2]	herbicidal effects on Amaranthus viridis L. [3]
Cn1c(=O)c(C(=O)C2=C(O)CCCC2=O)nc2ccccc21 [I-2, 3-(2-hydroxy-6-oxo-1-cyclohexenecarbonyl)-1-methylquinoxalin-2(1H)-one]	5	4	5	191 to 192	5	4	5	5	5			
O=C1CCCC(O)=C1C(=O)c1nc2cccnc2n(-c2ccc(F)cc2)c1=O [IV-8]					5	5	5	5	5	5	5	5
O=C1CCCC(O)=C1C(=O)c1nc2ccccc2n(C2=NOCC2)c1=O [I-131]	5	5	5		5	5	5	5	5			
COc1cc(-n2c(=O)c(C(=O)C3=C(O)CCCC3=O)nc3ccccc32)cc(OC)c1OC [II-185]					5	4	5	5	5	5	4	5
O=C1CCCC(O)=C1C(=O)c1nc2cccnc2n(Cc2ccccc2OC(F)F)c1=O [III-234]					5	5	5	5	5	5	5	5
O=C1CCCC(O)=C1C(=O)c1nc2ccccc2n(-c2ccc(OC(F)F)cc2)c1=O [II-95]					5	5	5	5	5	5	5	5
COc1cc(-n2c(=O)c(C(=O)C3=C(O)CCCC3=O)nc3ccccc32)ccc1C [II-168]					5	5	5	5	5	5	4	5
CCOc1cccc(-n2c(=O)c(C(=O)C3=C(O)CCCC3=O)nc3ccccc32)c1 [II-68]					5	5	5	5	5	5	5	5
